In PubChem BioAssay (NCI):
Values joined by “and” are separate entries in the source; they are usually repeats but may differ in a detail not shown here. Equal values may be shown once.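 All cell lines were grown in 96-well plates and treated with compound for 48 hours. At the GI50, growth is halved. TGI is the concentration that stops growth completely.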

Key:
Assay in all cases: NCI tumour cell line growth inhibition, 48 h
CCRF-CEM leukemia = tested on: CCRF-CEM leukemia
NCI-H226 lung = tested on: NCI-H226 lung
ACHN renal = tested on: ACHN renal
OVCAR-8 ovarian = tested on: OVCAR-8 ovarian
LOX IMVI melanoma = tested on: LOX IMVI melanoma
UACC-257 melanoma = tested on: UACC-257 melanoma
CAKI-1 renal = tested on: CAKI-1 renal
IGROV1 ovarian = tested on: IGROV1 ovarian
SNB-75 CNS = tested on: SNB-75 CNS
M14 melanoma = tested on: M14 melanoma

| SMILES | GI50 (CCRF-CEM leukemia) | TGI (CCRF-CEM leukemia) | GI50 (NCI-H226 lung) [µM] | TGI (NCI-H226 lung) | GI50 (ACHN renal) [µM] | TGI (ACHN renal) [µM] | GI50 (OVCAR-8 ovarian) | TGI (OVCAR-8 ovarian) | GI50 (LOX IMVI melanoma) [µM] | TGI (LOX IMVI melanoma) [µM] | GI50 (UACC-257 melanoma) [µM] | TGI (UACC-257 melanoma) | GI50 (CAKI-1 renal) [µM] | TGI (CAKI-1 renal) [µM] | GI50 (IGROV1 ovarian) [µM] | TGI (IGROV1 ovarian) | GI50 (SNB-75 CNS) | TGI (SNB-75 CNS) | TGI (M14 melanoma) | GI50 (M14 melanoma) [µM] |
| --- | --- | --- | --- | --- | --- | --- | --- | --- | --- | --- | --- | --- | --- | --- | --- | --- | --- | --- | --- | --- |
| CSC1=Nc2c(c(C)c(C)n2COC(CO)CO)C2=NC(=O)C(C)N12 (stereo not drawn) | > 100 µM | > 100 µM | > 100 | > 100 µM | > 100 | > 100 | > 100 µM | > 100 µM | > 100 | > 100 | > 100 | > 100 µM | > 100 | > 100 | 39.6 | > 100 µM | 26.3 µM | > 100 µM | – | – |
| CCC12CCCN(Cc3ccccc3)C1c1c(n(C)c3ccccc13)CC2 (stereo not drawn) | – | > 253 µM | – | > 253 µM | – | > 253 | – | > 253 µM | – | > 253 | – | > 253 µM | – | > 253 | – | > 253 µM | – | – | – | – |
| CCC(=O)CC(=O)CCC(=O)Nc1cc(C)ccc1C | – | > 100 µM | – | – | – | > 100 | – | > 100 µM | – | > 100 | – | – | – | – | – | > 100 µM | – | > 100 µM | > 100 µM | – |
| C#CCOc1cccc(-c2ncc3cc(NC(=O)CCl)ccc3n2)c1 | 0.252 µM | 0.994 µM | 2.6 | 8.17 µM | 1.72 | 3.19 | – | – | – | – | 2.02 | 3.96 µM | 1.88 | 3.31 | 1.8 | 4.01 µM | 2.22 µM | 15.4 µM | 4.54 µM | 1.81 |
| N.N.N.N.O=C([O-])CCl.O=C([O-])CCl.[Co+3].[O-][Cl+3]([O-])([O-])[O-] | > 100 µM | > 100 µM | – | – | > 100 | > 100 | > 100 µM | > 100 µM | > 100 | > 100 | > 100 | > 100 µM | – | – | > 100 | > 100 µM | 61.3 µM | > 100 µM | > 100 µM | > 100 |
| COC(=O)COc1ccccc1/C=C1\N=C(c2ccccc2)N(c2cc(C(F)(F)F)ccc2Cl)C1=O | 27.6 µM | 74.4 µM | 66.6 | > 100 µM | 57 | > 100 | 37.3 µM | > 100 µM | 24.9 | 73.6 | – | – | 79 | > 100 | 57 | > 100 µM | 34.4 µM | > 100 µM | > 100 µM | 37.9 |
| NC(=O)/C=C/C(=O)c1c(Cl)cccc1Cl | – | – | 2.52 | 8.25 µM | 0.323 | 0.853 | 1.75 µM | 3.27 µM | 0.793 | 2.16 | 1.38 | 2.68 µM | 0.971 | 2.5 | 1.39 | 2.8 µM | 1.61 µM | 2.96 µM | 2.76 µM | 1.45 |
| Clc1ccc2c(c1)[nH]c1c2nc2ccccn21 | 22.8 µM and 7.18 µM | 71.3 µM and 48.9 µM | – | 44.7 µM and 63.9 µM | 28.1 | 83 | 44.5 µM and 17 µM | > 100 µM and 33.1 µM | – | – | – | 89.4 µM and 32.3 µM | – | – | – | 85.8 µM and > 100 µM | 32.7 µM and 14.7 µM | > 100 µM and 37.2 µM | 64.5 µM and 36.9 µM | – |
| CC(C)C(CCl)NC(=O)c1cccc(C(=O)N[C@H](CCl)C(C)C)n1 (stereo in doubt) | – | > 100 µM | – | > 100 µM | – | > 100 | – | – | – | > 100 | – | – | – | > 100 | – | > 100 µM | – | > 100 µM | > 100 µM | – |
| CC(=O)OC1COC(Oc2c(C)c3c4c(c2O)[C@@H](C)CC[C@@H]4[C@@H](C)C[C@H]3C=C(C)C)C(O)C1OC(C)=O (stereo partly drawn) | 12 µM | 33.4 µM | 14.2 | 31.4 µM | 11 | 22.9 | 16 µM | 32.9 µM | 12 | 25.7 | 14.1 | 28.4 µM | 12.6 | 26.3 | 13.4 | 28.8 µM | – | – | 27.8 µM | 13.7 |
| CC1=C(C(=O)Nc2ccc(F)c(Cl)c2)C(c2ccccc2O)NC(=S)N1 (stereo not drawn) | – | – | > 50 | > 50 µM | > 50 | > 50 | 12.9 µM | > 50 µM | 23.6 | > 50 | 19.8 | > 50 µM | 45.8 | > 50 | > 50 | > 50 µM | – | – | > 50 µM | > 50 |
| CCOC(=O)c1cnc2c(ccc3[nH]n(C)nc32)c1=O | – | > 100 µM | – | > 100 µM | – | > 100 | – | > 100 µM | – | – | – | > 100 µM | – | > 100 | – | > 100 µM | – | > 100 µM | > 100 µM | – |
| COC(=O)C1c2cc3c(cc2C(OC2OC(C)C(OC)C(C)(OC)C2OC)CC1(C)O)C(=O)c1c(O)cc2c(c1C3=O)OC1OC2(C)C(O)C([N+](C)(C)[O-])C1O (stereo not drawn) | – | 0.921 µM | – | – | – | > 100 | – | 4.22 µM | – | 3.38 | – | – | – | > 28.3 | – | 4.22 µM | – | 1.86 µM | 3.64 µM | – |
| CC(C)CCC1CC2C(=O)N(c3ccccc3)C(=O)C2c2[nH]c3ccccc3c21 (stereo not drawn) | – | 16.8 µM | – | 12.4 µM | – | 21.5 | – | 11.7 µM | – | 14.6 | – | – | – | – | – | 28.4 µM | – | 9.25 µM | 4.04 µM | – |
| COc1cc(-c2oc(=O)ccc2C#Cc2ccccn2)cc(OC)c1OC | 2.14 µM | > 30 µM | 7.76 | > 100 µM | 11.7 | > 100 | 3.89 µM | > 100 µM | 4.38 | > 100 | 4.12 | > 61.8 µM | 0.563 | 3.73 | – | – | 1.93 µM | > 29.8 µM | > 32.4 µM | 2.74 |
| CSc1nc(=O)n(CCC#N)nc1SC | – | – | – | 84.2 µM | – | > 100 | – | > 100 µM | – | 43.5 | – | – | – | > 100 | – | > 100 µM | – | > 100 µM | 39.9 µM | – |
| CN1CC(=O)N2Cc3ccccc3-n3cccc3C2C1 (stereo not drawn) | – | – | – | – | – | > 100 | – | > 100 µM | – | > 100 | – | > 100 µM | – | > 100 | – | > 100 µM | – | > 100 µM | > 100 µM | – |
| OC(CC1SCCCS1)c1ccccc1 (stereo not drawn) | – | > 100 µM | – | > 100 µM | – | > 100 | – | > 100 µM | – | – | – | > 100 µM | – | > 100 | – | > 100 µM | – | > 100 µM | > 100 µM | – |
